From patent publication US20240208909A1, “SUBSTITUTED QUINOLINE DERIVATIVES HAVING SOS1 INHIBITION ACTIVITIES AND USES THEREOF” (Accutar Biotechnology Inc., priority 2022, published 2024)

Assays:
K562 cells = assay: Cell growth inhibition of K562 cells (CellTiter-Glo); type: cell-based; conditions: Homo sapiens, 120 h, 5 days
Experimental: Example 24: Cell Growth Inhibition of K562 Cells
K562 cells were obtained from American Type Culture Collection (ATCC). For cell growth assay, K562 cells were seeded in 96-well plates at 1000 cells/well in 90 μl of RPM11640 growth medium containing 10% FBS and 1% Penicillin Streptomycin, and then incubated at 37° C. for 1 hour. The test compound was administered to the cells by using 1000× compound stock solution prepared in DMSO at various concentrations. 1000× compound stock solution was first diluted in culturing medium to 10×, then 10 uL compound medium was added to each well in the cell plates. After administration of the compound, the cells were then incubated at 37° C. for 5 days. Upon completion, the plates were equilibrated at room temperature for approximately 10 minutes. 100 ul of CellTiter-Glo® Reagent (Promega) was added to each well. The plates were then incubated at room temperature for 10 minutes and luminescence was recorded by EnSpire plate reader (PerkinElmer).

SOS1/KRAS-G12D = SOS1/KRAS-G12D (Homo sapiens (Human), UniProt Q07889); assay: SOS1/KRAS-G12D binding inhibition assay (AlphaScreen); conditions: GST-SOS1 and 6*His KRAS-G12D, read-out: KrasG12D/SOS1 binding IC50
Chain of SOS1/KRAS-G12D (Q07889 564-1049 limits assumed): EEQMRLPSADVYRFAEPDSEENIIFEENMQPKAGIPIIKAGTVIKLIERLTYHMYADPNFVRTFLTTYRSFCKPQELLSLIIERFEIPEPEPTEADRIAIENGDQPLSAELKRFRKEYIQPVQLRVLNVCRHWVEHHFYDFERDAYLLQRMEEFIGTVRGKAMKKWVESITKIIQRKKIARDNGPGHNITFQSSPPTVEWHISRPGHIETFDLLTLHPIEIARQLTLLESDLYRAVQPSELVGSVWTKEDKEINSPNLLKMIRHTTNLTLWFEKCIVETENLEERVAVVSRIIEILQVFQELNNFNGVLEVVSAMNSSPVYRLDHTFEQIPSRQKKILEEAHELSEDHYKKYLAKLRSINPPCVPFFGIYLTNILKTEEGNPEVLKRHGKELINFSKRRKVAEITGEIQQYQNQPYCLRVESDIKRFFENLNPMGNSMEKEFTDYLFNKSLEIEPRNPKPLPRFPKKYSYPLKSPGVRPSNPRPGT
Experimental: Example 22: SOS1/KRAS-G12D Binding Inhibition Assay
SOS1 binding affinity of candidate compounds was measured by monitoring the interaction of SOS1 with KRAS-G12D in the presence of the test compound. Briefly, 5 nM GST tagged SOS1 proteins (final concentration) were pre-incubated with 50 nM 6*His tagged KRAS-G12D proteins (final concentration) in an assay buffer containing 10 mM HEPES, pH 7.4, 150 mM NaCl, 1 mM DTT, 5 mM MgCl2, 0.1% Tween-20, and 0.05% BSA for 30 minutes. The test compounds in 2% DMSO (final concentration) at various concentrations were then added to the reaction mixture and incubated for another 30 minutes at 4° C. 5 ug/ml GSH AlphaScreen donor beads (PerkinElmer, 6765300) and 5 ug/ml nickel chelate (Ni-NTA) AlphaScreen acceptor beads (PerkinElmer, 6760619C) (final concentrations) were then added to the mixture. After an incubation of 2 hours at 4° C., the fluorescent signals were obtained on the EnVision® 2105 Multilabel Plate Reader (PerkinElmer).
Raw AlphaScreen data were converted to a percentage of inhibition (relative to DMSO) using the following equations: • a) For a given test compound concentration X:
Signal (X)=Signal (SOS1 & KRAS-G12D & compound)-Signal (buffer & KRAS-G12D & compound)
Percentage of inhibition at concentration X=[1−Signal (X)/Signal (DMSO)]*100% b)
The IC50 values were determined by nonlinear regression of plots of [inhibitor] vs. percentage of inhibition with variable slope, analyzed using GraphPad Prism 9.

[1] = test system: Phospho-ERK1/2 in DLD1 cells; assay: Phospho-ERK1/2 expression inhibition in DLD1 cells; type: cell-based; conditions: Homo sapiens, DLD-1, 4 hours, read-out: DLD1 pERK IC50
Experimental: Example 23: Phospho-ERK1/2 Expression Inhibition in DLD1 Cells
DLD1 cells were obtained from American Type Culture Collection (ATCC). DLD1 cells were plated in 96-well plates (VWR #10062-900, or Corning #3904) in 90 uL culture medium at a density of 15,000 cells/well in the RPM11640 growth medium containing 10% FBS and 1% Penicillin Streptomycin, and then incubated at 37° C. overnight. The following day, the test compound was administered to the cells by using 1000×x compound stock solution prepared in DMSO at various concentrations. 1000× compound stock solution was first diluted in culturing medium to 10×, then 10 uL compound medium was added to each well in the cell plates. After administration of the compound, the cells were then incubated at 37° C. for 4 hours. Upon completion, the cells were washed with PBS briefly. 150 uL/well of 4% formaldehyde was added and the plates were incubated at room temperature for 20 mins. The cells were washed with PBS briefly, and permeabilized with 150 uL/well of ice cold 100% methanol for 10 mins. The cells were washed with PBS briefly and blocked with 100 uL/well LI-COR blocking buffer for 1 hr at room temperature with gentle shaking. The cells were incubated overnight at 4° C. with 50 uL primary antibody rabbit anti-Phospho-ERK1/2 (1: 500, Cell Signaling, #4370) diluted in Intercept Blocking Buffer (LI-COR, #927-60001) containing 0.1% Tween 20. The next day, the cells were washed with 200 uL PBS containing 0.1% Tween 20, 5×5 mins at room temperature with gentle shaking, and incubated with 50 uL secondary antibody, IRDye® 800CW Goat anti-Rabbit IgG (LI-COR, #926-32211), 1:1000, in LI-COR blocking buffer with 0.2% Tween 20 for 1 hr at room temperature with gentle shaking. The cells were washed with 200 uL PBS containing 0.1% Tween 20, 5×5 mins at room temperature with gentle shaking. The cells were washed with PBS for 5 mins. 100 uL fresh PBS was added to each well and the plates were imaged on a LI-COR Odyssey CLX plate reader.

| Compound | GI50 (K562 cells) | IC50 (SOS1/KRAS-G12D) | IC50 [1] |
| --- | --- | --- | --- |
| CC(=O)N1CCN(c2ccc3nccc(N[C@H](C)c4cccc(C(F)F)c4F)c3c2)CC1 [Compound 12, (R)-1-(4-(4-((1-(3-(difluoromethyl)-2-fluorophenyl)ethyl)amino)quinolin-6-yl)piperazin-1-yl)ethan-1-one] | ≤ 100 nM | ≤ 10 nM | ≤ 150 nM |
| CNC(=O)N1CC[C@](OC)(c2ccc3nccc(N[C@H](C)c4cccc(C(F)F)c4F)c3c2)C1 [Compound 102, (S)-3-(4-(((R)-1-(3-(difluoromethyl)-2-fluorophenyl)ethyl)amino)quinolin-6-yl)-3-methoxy-N-methylpyrrolidine-1-carboxamide] | ≤ 100 nM | ≤ 10 nM | ≤ 150 nM |
| CO[C@]1(c2ccc3nccc(N[C@H](C)c4cccc(C(F)F)c4F)c3c2)CCN(C(=O)N(C)C)C1 [Compound 98, (S)-3-(4-(((R)-1-(3-(difluoromethyl)-2-fluorophenyl)ethyl)amino)quinolin-6-yl)-3-methoxy-N,N-dimethylpyrrolidine-1-carboxamide] | 100 to 500 nM | ≤ 10 nM | > 500 nM |
| CC(=O)N1CCN(c2ccc3nccc(N[C@H](C)c4cccc(C(F)(F)F)c4C)c3c2)[C@@H](C)C1 [Compound 61, 1-((S)-3-methyl-4-(4-(((R)-1-(2-methyl-3-(trifluoromethyl)phenyl)ethyl)amino)quinolin-6-yl)piperazin-1-yl)ethan-1-one] | > 500 nM | > 100 nM | > 500 nM |
| Cc1c([C@@H](C)Nc2ccnc3ccc(N4C[C@@H]5C[C@H]4CO5)cc23)cccc1C(F)(F)F [Compound 22, 6-((1S,4S)-2-oxa-5-azabicyclo[2.2.1]heptan-5-yl)-N-((R)-1-(2-methyl-3-(trifluoromethyl)phenyl)ethyl)quinolin-4-amine] | > 500 nM | > 100 nM | > 500 nM |
| Cc1c([C@@H](C)Nc2ccnc3ccc(N4CCNC[C@@H]4C)cc23)cccc1C(F)(F)F [Compound 60, N-((R)-1-(2-methyl-3-(trifluoromethyl)phenyl)ethyl)-6-((S)-2-methylpiperazin-1-yl)quinolin-4-amine] | 100 to 500 nM | 10 to 100 nM | > 500 nM |
| Cc1c([C@@H](C)Nc2ccnc3ccc(N4CCn5ncnc5C4)cc23)cccc1C(F)(F)F [Compound 25, (R)-6-(5,6-dihydro-[1,2,4]triazolo[1,5-a]pyrazin-7(8H)-yl)-N-(1-(2-methyl-3-(trifluoromethyl)phenyl)ethyl)quinolin-4-amine] | 100 to 500 nM | > 100 nM | 150 to 500 nM |
| Cc1c([C@@H](C)Nc2ccnc3ccc(N4CCN(C(=O)C5CCOC5)CC4)cc23)cccc1C(F)(F)F (stereo partly drawn) [Compound 6, (4-(4-(((R)-1-(2-methyl-3-(trifluoromethyl)phenyl)ethyl)amino)quinolin-6-yl)piperazin-1-yl)(tetrahydrofuran-3-yl)methanone] | 100 to 500 nM | 10 to 100 nM | 150 to 500 nM |
| Cc1c([C@@H](C)Nc2ccnc3ccc(N4CCn5c(C)nnc5C4)cc23)cccc1C(F)(F)F [Compound 45, (R)-N-(1-(2-methyl-3-(trifluoromethyl)phenyl)ethyl)-6-(3-methyl-5,6-dihydro-[1,2,4]triazolo[4,3-a]pyrazin-7(8H)-yl)quinolin-4-amine] | 100 to 500 nM | 10 to 100 nM | > 500 nM |
| C[C@@H](Nc1ccnc2c(F)cc(N3CC[C@@H](N)C3)cc12)c1cccc(C(F)F)c1F [Compound 30, 6-((R)-3-aminopyrrolidin-1-yl)-N-((R)-1-(3-(difluoromethyl)-2-fluorophenyl)ethyl)-8-fluoroquinolin-4-amine] | 100 to 500 nM | 10 to 100 nM | > 500 nM |
| Cc1c([C@@H](C)Nc2ccnc3ccc(N4CCN(C(=O)C5COC5)CC4)cc23)cccc1C(F)(F)F [Compound 29, (R)-(4-(4-((1-(2-methyl-3-(trifluoromethyl)phenyl)ethyl)amino)quinolin-6-yl)piperazin-1-yl)(oxetan-3-yl)methanone] | 100 to 500 nM | 10 to 100 nM | > 500 nM |
| C[C@@H](Nc1ccnc2ccc(N3CCN(C(=O)[C@H]4CCOC4)CC3)cc12)c1cccc(C(F)F)c1F [Compound 14, (4-(4-(((R)-1-(3-(difluoromethyl)-2-fluorophenyl)ethyl)amino)quinolin-6-yl)piperazin-1-yl)((S)-tetrahydrofuran-3-yl)methanone] | ≤ 100 nM | ≤ 10 nM | 150 to 500 nM |
| CC(=O)N[C@@H]1CCN(c2ccc3nccc(N[C@H](C)c4cccc(C(F)F)c4F)c3c2)C1 [Compound 11, N-((R)-1-(4-(((R)-1-(3-(difluoromethyl)-2-fluorophenyl)ethyl)amino)quinolin-6-yl)pyrrolidin-3-yl)acetamide] | ≤ 100 nM | 10 to 100 nM | 150 to 500 nM |
| Cc1c([C@@H](C)Nc2ccnc3ccc(N4CCC(N5CCC5)CC4)cc23)cccc1C(F)(F)F [Compound 65, (R)-6-(4-(azetidin-1-yl)piperidin-1-yl)-N-(1-(2-methyl-3-(trifluoromethyl)phenyl)ethyl)quinolin-4-amine] | > 500 nM | 10 to 100 nM | > 500 nM |
| COC1(c2ccc3nccc(N[C@H](C)c4cccc(C(F)(F)F)c4C)c3c2)CCN(C(C)=O)CC1 [Compound 79, (R)-1-(4-methoxy-4-(4-((1-(2-methyl-3-(trifluoromethyl)phenyl)ethyl)amino)quinolin-6-yl)piperidin-1-yl)ethan-1-one] | 100 to 500 nM | 10 to 100 nM | 150 to 500 nM |
| CC(=O)N1CCN(c2ccc3nccc(N[C@H](C)c4cccc(C(F)(F)F)c4C)c3c2)CC1(C)C [Compound 36, (R)-1-(2,2-dimethyl-4-(4-((1-(2-methyl-3-(trifluoromethyl)phenyl)ethyl)amino)quinolin-6-yl)piperazin-1-yl)ethan-1-one] | 100 to 500 nM | 10 to 100 nM | > 500 nM |
| CC(=O)N1CC[C@](F)(c2ccc3nccc(N[C@H](C)c4cccc(C(F)F)c4F)c3c2)C1 [Compound 85, 1-((S)-3-(4-(((R)-1-(3-(difluoromethyl)-2-fluorophenyl)ethyl)amino)quinolin-6-yl)-3-fluoropyrrolidin-1-yl)ethan-1-one] | 100 to 500 nM | ≤ 10 nM | > 500 nM |
| Cc1c([C@@H](C)Nc2ccnc3ccc(N4CCNC(C)(C)C4)cc23)cccc1C(F)(F)F [Compound 35] | 100 to 500 nM | 10 to 100 nM | > 500 nM |
| C[C@@H](Nc1ccnc2ccc(N3CCOCC3)cc12)c1cccc(C(F)F)c1F [Compound 48, (R)-N-(1-(3-(difluoromethyl)-2-fluorophenyl)ethyl)-6-morpholinoquinolin-4-amine] | ≤ 100 nM | ≤ 10 nM | ≤ 150 nM |
